Key:
mushroom tyrosinase = assay: Tyrosinase activity inhibition test using L-dopa as substrate (Test Examples 1 and 2, absorbance at 475 nm); type: biochemical; details: Table 1
Method: Using the compound 7 obtained in Example 2, the compound 13 obtained in Example 5, a mixture of the compound 18 and the compound 19 (existing molar ratio 45:55) obtained in Example 7, and arbutin (manufactured by Tokyo Kasei Kogyo Co., Ltd.) as a comparative control, a tyrosinase activity inhibition test was carried out using L-dopa as a substrate.
The specific test procedures are as follows. • (1) 1.80 ml of a phosphate buffer prepared by dissolving 1.000 g of sodium dihydrogen phosphate and 1.186 g of disodium hydrogen phosphate in 500 ml of distilled water, 1.00 ml of a substrate solution prepared by dissolving 32.7 mg of L-DOPA in 200 ml of distilled water, and 0.10 ml of a test solution prepared by dissolving the test compound in dimethyl sulfoxide were mixed together. • (2) 0.10 ml of an enzyme solution prepared by dissolving 3.0 mg (2400 units; manufactured by Sigma Corporation) of mushroom tyrosinase in 7.0 ml of distilled water was added to the solution prepared in (1), and the whole was stirred for 15 seconds. The resulting solution was maintained at 25° C., and the absorbance at 475 nm was measured one minute and 45 seconds later and 2 minutes and 45 seconds later. • (3) The test operations in the above (1) and (2) were conducted three times for the individual test compounds and blank test (only dimethyl sulfoxide), and the resulting numeric value was inserted in the following calculation formula and a mean value thereof was regarded as a tyrosinase activity inhibition ratio (%). Tyrosinase activity inhibition ratio (%)=[(T^1−T^2)/T^1]×100 • T^1=difference in absorbance of solution with addition of no test compound between 2 minutes and 45 seconds later and one minute and 45 seconds later • T^2=difference in absorbance of solution with addition of test compound was added between 2 minutes and 45 seconds later and one minute and 45 seconds later
Using the compound 40 obtained in Example 24 and arbutin (manufactured by Tokyo Kasei Kogyo Co., Ltd.) as a comparative control, a tyrosinase activity inhibition test was carried out using L-dopa as a substrate. The test procedure was in accordance with Test Example 1.

[1] = biological target: T1, hyaluronic acid-degrading enzyme (derived from bovine testicles, Type IV-S) (Bos taurus, UniProt Q2YDK3); assay: Hyaluronic acid-degrading enzyme activity inhibition test; type: biochemical
T1 construct: derived from bovine testicles manufactured by Sigma Corporation, Type IV-S; purchased Sigma Corporation Type IV-S; host or cells: bovine testicles
T1 sequence (Q2YDK3 36-553): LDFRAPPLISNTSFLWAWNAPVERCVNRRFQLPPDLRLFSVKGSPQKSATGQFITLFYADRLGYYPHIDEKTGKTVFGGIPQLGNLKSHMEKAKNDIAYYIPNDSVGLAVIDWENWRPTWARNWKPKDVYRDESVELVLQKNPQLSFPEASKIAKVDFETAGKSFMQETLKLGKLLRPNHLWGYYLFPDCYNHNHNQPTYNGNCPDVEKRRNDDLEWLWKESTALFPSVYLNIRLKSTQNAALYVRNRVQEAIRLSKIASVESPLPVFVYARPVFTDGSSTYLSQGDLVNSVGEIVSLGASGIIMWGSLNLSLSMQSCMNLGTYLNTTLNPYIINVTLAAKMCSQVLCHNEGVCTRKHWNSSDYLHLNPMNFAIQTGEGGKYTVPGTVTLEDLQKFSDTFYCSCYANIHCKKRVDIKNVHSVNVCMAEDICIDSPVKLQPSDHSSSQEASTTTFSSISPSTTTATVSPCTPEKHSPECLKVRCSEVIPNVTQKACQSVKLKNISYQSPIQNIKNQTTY
Method: Using the compound 7 obtained in Example 2, the compound 34, and magnesium ascorbate phosphate as a comparative control, a hyaluronic acid-degrading enzyme activity inhibition test was carried out.
(§1) First, the following solutions shown in A to H were each prepared. • A: 0.1M acetate buffer solution was prepared by dissolving 0.60 g of acetic acid in 100 ml of distilled water. • B: A hyaluronidase solution was prepared by dissolving 7.2 mg of a hyaluronic acid-degrading enzyme (derived from bovine testicles manufactured by Sigma Corporation, Type IV-S) into 3.0 ml of the acetate buffer (prepared in the above A). • C: An activator solution was prepared by dissolving 1.0 mg of compound 48/80 (a hyaluronidase activator manufactured by Sigma Corporation) into 10.0 ml of the acetate buffer (prepared in the above A). • D: A hyaluronic acid solution was prepared by dissolving 12.0 mg of potassium hyaluronate (manufactured by Wako Pure Chemical Industries, Ltd.) into 15.0 ml of the acetate buffer (prepared in the above A). • E: A 0.4N sodium hydroxide aqueous solution was prepared by dissolving 1.60 g of sodium hydroxide into 100 ml of distilled water. • F: After 4.95 g of boric acid was dissolved into 50 ml of distilled water, a 1N sodium hydroxide aqueous solution was added until pH reached 9.1. Subsequently, the whole amount was made 100 ml by adding distilled water. • G: 1.0 g of p-dimethylaminobenzaldehyde, 1.25 ml of 10N hydrochloric acid, and 8.75 ml of acetic acid were mixed. The solution was used after the whole amount was made 100 ml by adding acetic acid immediately before use. • H: Each test compound was dissolved in the acetate buffer (prepared in the above A) so the final test concentration became 0.5 mg/ml and 1.0 mg/ml.
Next, the experimental operation was carried out with the procedures shown in the following (1) to (8).
(1) 0.2 ml of the test compound solution (prepared in the above H) and 0.1 ml of the hyaluronic acid-degrading enzyme solution (prepared in the B) were mixed and the whole was incubated at 37° C. for 20 minutes.
(2) To the above reaction solution was added 0.2 ml of the activator solution (prepared in the above C) and the whole was incubated at 37° C. for 20 minutes.
(3) To the above reaction solution was added 0.5 ml of the hyaluronic acid solution (prepared in the above D), and the whole was incubated at 37° C. for 40 minutes.
(4) To the above reaction solution was added 0.2 ml of the 0.4N sodium hydroxide aqueous solution (prepared in the above E), and the whole was cooled in an ice bath.
(5) To the above reaction solution was added 0.2 ml of the boric acid solution (prepared in the above F), and the whole was heated at 100° C. for 3 minutes.
(6) The above reaction solution was cooled in an ice bath.
(7) To the above reaction solution was added 3.0 ml of the p-dimethylaminobenzaldehyde solution (prepared in the above G), and the whole was incubated at 37° C. for 20 minutes.
(8) Absorbance of the reaction solution at 585 nm was measured using a spectrophotometer.
The above experimental operations were repeated three times, and the resulting numeric value was inserted in the following calculation formula and a mean value thereof was regarded as a hyaluronic acid-degrading enzyme activity inhibition ratio (%). Hyaluronic acid-degrading enzyme activity inhibition ratio (%)=(A−B)/A×100
A=absorbance obtained at the time when operation was carried out with addition of no test compound
B=absorbance obtained at the time when operation was carried out with addition of test compound
The compounds of the invention and magnesium ascorbate phosphate were each used in an enzymatic reaction solution in amounts of 0.1 mg/ml, 0.2 mg/ml, and 0.4 mg/ml, and the results were shown in Table 7 (since the compound 7 was not dissolved in a concentration of 0.4 mg/ml, the test was not carried out).

[2] = Test of scavenging DPPH radical (Test Example 8, 517 nm); details: final concentration of 10 μg/mL; 20 minutes, room temperature
Method: Using the compound 7 obtained in Example 2 as well as dl-α-tocopherol (manufactured by Tokyo Kasei Kogyo Co., Ltd.) and butylhydroxytoluene (BHT) as comparative controls, a test of scavenging DDPH (1,1-diphenyl-2-picrylhydrazyl) radical, a stable radical, was carried out.
1 ml of 200 μM DPPH ethanol solution was added to 800 μl of 100 mM Tris-HCl buffer (pH 7.4) and 200 μl of an ethanol solution of the compound 7 (a final concentration of 10 μg/mL), followed by sufficient stirring. After the resulting mixture was allowed to stand in a dark place at room temperature for 20 minutes, the absorbance at 517 nm was measured (absorbance of the test solution)
The compound 13 of the invention as well as dl-α-tocopherol and butylhydroxytoluene as a known radical scavenger were similarly tested.
As a control, 800 μl of 100 mM Tris-HCl buffer (pH 7.4), 200 μl of ethanol, and 1 ml of 200 μM DPPH ethanol solution were used in the same manner as described above and the absorbance was measured (absorbance of the control solution).
With the individual compounds, the same measurement was repeated three times, and the mean value was inserted in the following formula to calculate a DPPH radical-scavenging ratio (%). DPPH radical-scavenging ratio (%)=[1−(absorbance of sample solution/absorbance of control solution)]×100

[3] = Dissolution of test compound for the hyaluronic acid-degrading enzyme test; type: physicochemical; details: concentration of 0.4 mg/ml, acetate buffer
Method: as §1, with “The solution was used after the whole amount was made 100 ml by adding acetic acid immediately before use. • H: Each test compound was dissolved in the acetate buffer (prepared in the above A) so the final test concentration became 0.5 mg/ml and 1.0 mg/ml.” left out

SMILES: COc1cc(CCC(=O)/C=C/CCCCCCC(=O)O)ccc1O [Compound 7]
- Tyrosinase activity inhibition ratio (%) (mushroom tyrosinase; 0.5 mg/mL in enzymatic reaction solution): 59.8%
- Tyrosinase activity inhibition ratio (%) (mushroom tyrosinase; 1 mg/mL in enzymatic reaction solution): 77.1%
- Hyaluronic acid-degrading enzyme activity inhibition ratio (%) ([1]; 0.1 mg/mL): 10.6%
- Hyaluronic acid-degrading enzyme activity inhibition ratio (%) ([1]; 0.2 mg/mL): 41.3%
- DPPH radical-scavenging ratio (%) [2]: 33.7%
- Solubility in the test solution [3]: not dissolved

Reference: patent publication US7355063B2, “Shogaol compound and tyrosinase activity inhibitor comprising the compound” (Toagosei Co., Ltd., priority 2003, dated 2008)
